Reference: patent US8993566B2, “Quinoline compound composing 1,2,4-triazine-dione and use thereof” (Wuhan Shengyun Biopharma Co., Ltd., priority 2012, dated 2015)
In brackets after ≈: the same amount, converted by molar mass. Like-named read-outs stand apart in the source and are kept apart here.

Key:
[1] = target: T1, c-Met kinase (His-tagged recombinant human Met (amino acids 974-end)) (Homo sapiens, UniProt P08581); test: c-Met Enzyme Activity Inhibition Assay (ELISA); type: biochemical; details: 50 pM c-Met, 5 μM ATP, room temperature 20 min; for IC50: read-out: IC50 for inhibiting c-Met kinase (converted)
T1 construct: His-tagged recombinant human Met (amino acids 974-end); His
T1 sequence (P08581 956-1390): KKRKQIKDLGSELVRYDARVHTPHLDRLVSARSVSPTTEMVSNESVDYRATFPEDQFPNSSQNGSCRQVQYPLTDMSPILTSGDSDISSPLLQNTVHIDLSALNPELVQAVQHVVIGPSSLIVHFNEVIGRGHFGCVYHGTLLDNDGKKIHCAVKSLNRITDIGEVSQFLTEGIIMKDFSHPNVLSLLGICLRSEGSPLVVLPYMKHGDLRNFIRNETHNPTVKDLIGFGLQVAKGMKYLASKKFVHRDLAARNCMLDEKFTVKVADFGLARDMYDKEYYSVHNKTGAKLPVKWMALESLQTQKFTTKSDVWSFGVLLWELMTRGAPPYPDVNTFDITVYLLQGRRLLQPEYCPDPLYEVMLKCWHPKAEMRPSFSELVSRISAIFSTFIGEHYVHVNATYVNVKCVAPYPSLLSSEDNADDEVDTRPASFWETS
Experimental: c-Met Enzyme Activity Inhibition Assay
The assay for the determination of c-Met kinase activity is based on an enzyme linked immunosorbant assay (ELISA). A compound of Formula I, 50 pM c-Met (His-tagged recombinant human Met (amino acids 974-end), expressed by baculovirus), and 5 μM ATP in an assay buffer (25 mM MOPS, pH 7.4, 5 mM MgCl2, […], 100 μM sodium orthovanadate, 0.01% Triton X-100, 1 mM DTT, final DMSO concentration 1% (v/v)) were incubated on a plate coated with 0.25 mg/mL POT at room temperature for 20 min. The reaction mixture was removed by washing and the phosphorylated polymer substrate was detected with 0.2 μg/mL phosphotyrosine specific monoclonal antibody (PY20) conjugated to horseradish peroxidase (HRP). After the addition of 1M phosphoric acid to stop the development, the chromogenic substrate (TMB) color was quantitated by spectrophotometry at 450 nm.

[2] = tested on: human colon cancer cell HT-29; test: In vitro anti-tumor cell activity (MTT), HT-29; type: cell-based; details: for IC50: Homo sapiens, read-out: HT-29 IC50
Experimental: (§1) The digested cell solution was poured into a centrifuge tube, to which a culture media was added to stop the digestion. The centrifuge tube was centrifuged at 800 r/min for 10 min, the supernatant was removed gently and then 5 mL of the culture media was added. The cells were pipetted and mixed homogeneously. 10 μL cell suspension was taken into a cell counting plate for counting, wherein the cell concentration was adjusted to 10^4 cells/well. To each well of a 96-well plate, except for A1 well as blank control, was added 100 μL of the cell suspension. The 96-well plate was placed in an incubator and cultivated for 24 h. […] The 96-well plate was placed in an incubator and cultivated for 72 h. (3) The culture media containing the compounds in the 96-well plate was removed, and the cells were washed with phosphate buffered solution (PBS) twice. To each well was added 100 μL MTT (tetrazole) (0.5 mg/mL), after placing the plate in an incubator to incubate for 4 h, the MTT solution was removed and 100 μL dimethyl sulfoxide was added. The reaction product of survival cells with MTT, i.e. formazan, was dissolved completely by oscillation on a magnetic oscillator, and then placed into a microplate reader to measure the results, and the IC50 values of compounds could be deduced by Bliss method.

[3] = tested on: human gastric cancer cell MKN-45; test: In vitro anti-tumor cell activity (MTT), MKN-45; type: cell-based; details: for IC50: Homo sapiens, read-out: MKN-45 IC50
Experimental: as §1

[4] = tested on: human hepatoma carcinoma cell line SMMC-7721; test: In vitro anti-tumor cell activity (MTT), SMMC-7721; type: cell-based; details: for IC50: Homo sapiens, read-out: SMMC-7721 IC50
Experimental: as §1

[5] = tested on: human nonsmall-cell lung cancer cell H460; test: In vitro anti-tumor cell activity (MTT), H460; type: cell-based; details: for IC50: Homo sapiens, read-out: H460 IC50
Experimental: as §1

[6] = HT-29 cells, MTT, 72 h, Bliss method
[7] = MKN-45 cells, MTT, 72 h, Bliss method
[8] = SMMC-7721 cells, MTT, 72 h, Bliss method
[9] = H460 cells, MTT, 72 h, Bliss method

Compound	IC50 for inhibiting c-Met kinase [1] [µg/mL]	HT-29 IC50 [2, 6] [µg/mL]	MKN-45 IC50 [3, 7] [µg/mL]	SMMC-7721 IC50 [4, 8] [µg/mL]	H460 IC50 [5, 9] [µg/mL]	further results
COc1cc2c(Oc3ccc(NC(=O)c4nn(-c5ccccc5)c(=O)n(C)c4=O)cc3F)ccnc2cc1OCCCN1CCCC1 [Example 1, N-[3-fluoro-4-[6-methoxy-7-[3-(tetrahydropyrrol-1-yl)propyloxy]quinolin-4-oxy]phenyl]-2-phenyl-4-methyl-3,5-dioxo-2,3,4,5-tetrahydro-1,2,4-triazine-6-carboxamide]	–	–	–	–	–	IC50 [1]: 71.8 nM; IC50 ([2]; HT-29, 72 h): 0.12 µg/mL (≈ 0.187 µM); IC50 ([3]; MKN-45, 72 h): 0.042 µg/mL (≈ 0.0656 µM); IC50 ([4]; SMMC-7721, 72 h): 0.18 µg/mL (≈ 0.281 µM); IC50 ([5]; NCI-H460, 72 h): 0.26 µg/mL (≈ 0.406 µM)
COc1cc2c(Oc3ccc(NC(=O)c4nn(-c5ccccc5)c(=O)n(C)c4=O)cc3F)ccnc2cc1OCCCN1CCOCC1 [Example 3, N-[3-fluoro-4-[6-methoxy-7-[3-(4-morpholinyl)propyloxy]quinolin-4-oxy]phenyl]-2-phenyl-4-methyl-3,5-dioxo-2,3,4,5-tetrahydro-1,2,4-triazine-6-carboxamide]	–	–	–	–	–	IC50 [1]: 88.3 nM; IC50 [2, 6]: 0.14 µg/mL (≈ 0.213 µM); IC50 [3, 7]: 0.059 µg/mL (≈ 0.0898 µM); IC50 [4, 8]: 0.1 µg/mL (≈ 0.152 µM); IC50 ([5]; NCI-H460, H460 cells, MTT, 72 h, Bliss method): 0.17 µg/mL (≈ 0.259 µM)
COc1cc2c(Oc3ccc(NC(=O)c4nn(-c5ccccc5)c(=O)n(C)c4=O)cc3F)ccnc2cc1OCCCN1CCN(C)CC1 [Example 5, N-[3-fluoro-4-[6-methoxy-7-[3-(4-methyl-1-piperazinyl)propyloxy]oxy]phenyl)-2-phenyl-4-methyl-3,5-dioxo-2,3,4,5-tetrahydro-1,2,4-triazine-6-carboxamide]	0.28	0.12	0.12	0.15	0.094	–
COc1cc2c(Oc3ccc(NC(=O)c4nn(-c5ccc(C)cc5)c(=O)n(C)c4=O)cc3F)ccnc2cc1OCCCN1CCN(C)CC1 [Example 15, N-[3-fluoro-4-[6-methoxy-7-[3-(4-methyl-1-piperazinyl)propyloxy]quinolin-4-oxy]phenyl]-2-(4-methylphenyl)-4-methyl-3,5-dicarbonyl-2,3,4,5-tetrahydro-1,2,4-triazine-6-carboxamide;]	0.009	0.5	–	0.79	0.18	–
N-[3-fluoro-4-[6-methoxy-7-[3-(1-piperidinyl)propyloxy]quinolin-4-oxy]phenyl]-2-(4-methylphenyl)-4-methyl-3,5-dicarbonyl-2,3,4,5-tetrahydro-1,2,4-triazine-6-carboxamide [Example 12]	0.18	0.11	–	0.74	0.12	–
N-[3-fluoro-4-[6-methoxy-7-[3-(1-piperidinyl)propyloxy]quinolin]-4-oxy]phenyl]-2-phenyl-4-benzyl-3,5-dicarbonyl-2,3,4,5-tetrahydro-1,2,4-triazine-6-carboxamide [Example 46]	–	0.3	0.1	1.4	0.8	–
N-[3-fluoro-4-[6-methoxy-7-[3-(4-morpholinyl)propyloxy]quinolin-4-oxy]phenyl]-2-(4-methylphenyl)-4-methyl-3,5-dicarbonyl-2,3,4,5-tetrahydro-1,2,4-triazine-6-carboxamide [Example 13]	0.25	0.19	–	0.67	0.28	–
N-[3-fluoro-4-[6-methoxy-7-[3-(4-morpholinyl)propyloxy]quinolin]-4-oxy]phenyl]-2-(2,4-dichlorophenyl)-4-benzyl-3,5-dicarbonyl-2,3,4,5-tetrahydro-1,2,4-triazine-6-carboxamide [Example 43]	–	0.32	0.07	1.4	0.65	–
